Measured values: US20100204098A1 (priority 2007, published 2010)

Key:
[1] = system: L. maculans; assay type: cell-based, Leptosphaeria maculans
[2] = system: F. graminearum; assay type: cell-based, Fusarium graminearum
[3] = system: M. luteus; assay type: cell-based, Micrococcus luteus
[4] = system: F. oxysporum; assay type: cell-based, Fusarium oxysporum
[5] = system: E. coli; assay type: cell-based, Escherichia coli
[6] = system: A. rabiei; assay type: cell-based, Ascochyta rabiei

Substance	concentration level at which activity against spores of L. maculans was shown [1] [µM]	activity against F. graminearum of fractions purified from hemolymph [2]	concentration level at which activity against spores of F. graminearum was shown [2] [µM]	concentration at which activity against M. luteus was shown [3] [µM]	concentration level at which activity against spores of F. oxysporum was shown [4] [µM]	concentration at which activity against E. coli was shown [5] [µM]	activity against M. luteus [3]	activity against spores of F. oxysporum [4]	concentration level at which activity against spores of A. rabiei was shown [6] [µM]	activity against E. coli [5]
Gm-moricinC3: Moricin-like peptide from Galleria mellonella, SEQ ID NO:5; purified from hemolymph and synthesised by Auspep (KVPIGAIKKGGKIIKKGLGVIGAAGTAHEVYSHVKNRQ; listed as Galleria mellonella)	100	activity	10	100	100	100	–	–	–	–
Gm-moricinC4/C5: Mature Gm-moricinC4 and Gm-moricinC5 from Galleria mellonella, identical mature amino acid sequences (SEQ ID NO:1 and 3), synthesised by Auspep (KVPVGAIKKGGKAIKTGLGVVGAAGTAHEVYSHIRNRH; listed as Galleria mellonella)	100	–	100	–	–	100	no activity	no activity	–	–
Gm-moricinD: Moricin-like antifungal peptide from Galleria mellonella, SEQ ID NO:7; purified from hemolymph and synthesised by Auspep (KGIGSALKKGGKIIKGGLGALGAIGTGQQVYEHVQNRQ; listed as Galleria mellonella)	100	activity	10	–	100	–	no activity	–	100	no activity
